Test results reported in patent publication US8673943B2, “Fluorinated derivatives of deferiprone” (Apotex Technologies Inc., priority 2007, dated 2014).

Columns and labels:
[1] = pH 7.4; cited from earlier work
[2] = assay type: physicochemical
Description: The term “log kBMC” refers to the logarithm of the chromatographic capacity factor (reference retention time) in BMC, a special type of HPLC (Escuder-Gilabert, L., et al., Journal of Chromatography B, 2004, 807, 193-201). This analytical technique was used to correlate the log kBMC of 31 reference drug substances with known experimentally determined log BB values. A linear regression mathematical equation log BB=a(log kBMC)+b was obtained from these reference drug substances wherein a and b are constants. The log kBMC of the compounds of the present invention was measured by BMC. The experimental log kBMC of the compounds of the present invention was fit into the log BB=a(log KBMC) b equation to obtain a calculated log BB value. The calculated log BB is an indicator of the BBB penetration property of the compounds of the present invention.
FIG. 1 provides a table illustrating the physical properties of selected compounds of formula (I) according to the present invention. […] The chromatographic capacity factor kBMC of 31 reference drug substances with known experimentally determined log BB values were recorded (FIGS. 2 and 3). […] We used the above equation to compute a calculated log BB value of the compounds of the present invention as an estimate of the BBB penetration properties of the compounds. Deferiprone is known to penetrate the BBB and has a calculated log BB value of −1.05. […]

[3] = In vivo pharmacokinetic (PK) and blood brain barrier (BBB) studies, cassette dosing; set-up: species or system male Sprague-Dawley rats; conditions: tail vein injection, rat; for AUC brain* / AUC: normalized to 2 mg/kg dose; for Kp at 5 min / Kp / AUC: male, Sprague-Dawley; for Kp at 5 min / Kp: brain/plasma, intravenous; for Kp at 5 min: read-out: Brain/Plasma ratio at 5 min; for Kp: read-out: AUC brain/AUC plasma; for AUC: iv, plasma
Description: In vivo pharmacokinetic (PK) and blood brain barrier (BBB) studies were conducted in male Sprague-Dawley rats using cassette dosing. The topic of cassette dosing has been reviewed by Manitpisitkul, P. and White, R. E. (August 2004), Drug Discovery, Vol 9. No. 15, pp. 652-658. The mode of administration was through tail vein injection.

[4] = Chemical stability studies in aqueous media, monitored by HPLC; assay type: physicochemical; conditions: for stability in 50 mM phosphate buffer at pH 7.4 or aqueous 0.01 N NaOH: HPLC Method 1; for stability in aqueous 0.01 N HCl and de-ionized water at pH 5.6: freshly prepared solutions
Description: (2) de-ionized water at pH 5.6;
(3) 50 mM phosphate buffer at pH 7.4; and […]

[5] = prior-art / published chelators; 1×10^−5 M chelator and 1×10^−6 M Fe(III); cited from earlier work

SMILES | AUC brain* [3] [ng·h/mL] | Kp at 5 min [3] | Kp [3] | AUC [3] [ng·h/mL] | Kα [3] [h⁻¹] | Kβ [3] [h⁻¹] | t1/2α [3] [h] | t1/2β [3] [h] | other results
Cc1cc(=O)c(O)c(CF)n1C [compound (C)] | – | – | – | – | – | – | – | – | stability in aqueous solution [4]: unstable
Cc1cc(=O)c(O)c(C(F)F)n1C [(iv), 2-difluoromethyl-3-hydroxy-1,6-dimethyl-1H-pyridin-4-one] | – | – | – | – | – | – | – | – | stability in 50 mM phosphate buffer at pH 7.4 or aqueous 0.01 N NaOH [4]: almost instantaneously hydrolysed to their corresponding aldehydes; stability in aqueous 0.01 N HCl and de-ionized water at pH 5.6 [4]: stable
Cn1cc(O)c(=O)cc1CF [(D)] | – | – | – | – | – | – | – | – | stability in aqueous solution [4]: unstable
Cn1ccc(=O)c(O)c1C(F)F [(v), 2-difluoromethyl-3-hydroxy-1-methyl-1H-pyridin-4-one] | – | – | – | – | – | – | – | – | stability in 50 mM phosphate buffer at pH 7.4 or aqueous 0.01 N NaOH [4]: almost instantaneously hydrolysed to their corresponding aldehydes; stability in aqueous 0.01 N HCl and de-ionized water at pH 5.6 [4]: stable; stability in pH 7.4 phosphate buffer and 0.01 M sodium hydroxide [4]: unstable
Cc1c(O)c(=O)c(CC(F)(F)F)cn1C [Apo6855, 3-Hydroxy-1,2-dimethyl-5-(2,2,2-trifluoro-ethyl)-1H-pyridin-4-one] | 580 | 0.5 | 0.65 | 890 | 2.37 | 0.136 | 0.29 | 5.10 | –
Cn1cc(O)c(=O)cc1CF [compound (vii), 2-fluoromethyl-5-hydroxy-1-methyl-1H-pyridin-4-one] | – | – | – | – | – | – | – | – | fraction of compound remaining ([4]; 50 mM phosphate buffer at pH 7.4, after 5 hrs): about half; time stable in MeOH ([4]; MeOH): at least 4 hrs; stability in aqueous 0.01 N NaOH ([4]; aqueous 0.01 N NaOH): decomposed rapidly; stability in pH 7.4 phosphate buffer and 0.01 M sodium hydroxide [4]: unstable
CNC(=O)c1c(O)c(=O)cc(C)n1C [CP502] | – | – | – | – | – | – | – | – | pFe(III) / pFe^3+ [5]: 21
Cc1cc(=O)c(O)c(C(O)C(F)(F)F)n1C (stereo not drawn) [Apo6729, 3-hydroxy-1,6-dimethyl-2-(2,2,2-trifluoro-1-hydroxy-ethyl)-1H-pyridin-4-one] | – | – | – | – | – | – | – | – | time stable in 0.1N HCl, 50 mM phosphate buffer pH 7.4 and 0.1 N NaOH ([4]; 0.1N HCl, 50 mM phosphate buffer at pH 7.4, 0.1 N NaOH, room temperature): at least 21 hrs

Now from value to compound, other results behind:

AUC brain* [3] [ng·h/mL] | Kp at 5 min [3] | Kp [3] | AUC [3] [ng·h/mL] | Kα [3] [h⁻¹] | Kβ [3] [h⁻¹] | t1/2α [3] [h] | t1/2β [3] [h] | SMILES | other results
860 | 0.45 | 0.79 | 1080 | 1.36 | 0.215 | 0.51 | 3.22 | Cc1c(O)c(=O)ccn1C [Deferiprone, 3-hydroxy-1,2-dimethyl-1H-pyridin-4-one] | distribution coefficient [1]: 0.17; calculated log BB [2]: −1.05
2730 | 0.46 | 0.6 | 4520 | 0.68 | 0.133 | 1.02 | 5.21 | Cn1ccc(=O)c(O)c1CC(F)(F)F [Apo6825, 3-hydroxy-1-methyl-2-(2,2,2-trifluoro-ethyl)-1H-pyridin-4-one] | –
